Earlier results as cited in patent publication US20060093222A1, “Data processing, analysis, and visualization system for use with disparate data types” (priority 1999, published 2006).

Columns and labels:
[1] = test system: Bacillus subtilis and Bacillus cereus; settings: liquid and semi-solid substrates, aerobic and anaerobic

Compound | additional patients normal or nearly normal 3 months after their stroke (stroke patients; for every 100 stroke patients treated with t-PA) | rate of fatal ICH (stroke patients; t-PA therapy, stroke patients) [%] | rate of symptomatic intracerebral hemorrhage (ICH) (stroke patients; t-PA therapy, stroke patients) [%] | anti-sporulation effect [1]
Tissue plasminogen activator [t-PA] | 11-13 | 3 | 6 | 
O=S(O)S(=O)(=O)O [metabisulphite] |  |  |  | effective anti-sporulation agent
